Where “and” joins values, the source holds several entries; their conditions need not be identical. Equal entries are not always repeated. Where two headings read alike, the source gives them in different places.
Experiments:
[1] = system: mouse model of postpartum depression; details: cited from earlier work
[2] = system: LPS-induced NO production in N9 microglial cells; test: LPS-induced NO production (Griess assay); assay type: cell-based, mouse; details: for Nitrite: control 4.60, LPS group 31.81 μM; for Nitrite / % Inhibition of NO Production / inhibition at 25 µM / inhibition at 50 µM: mean ± S.E.M.; for % Inhibition of NO Production: 50 µM; for inhibition at 25 µM / inhibition at 50 µM: N9, 24 h
Protocol: Figure 2 Inhibitory effects of TBIII (A) and t-HL (B) in LPS-stimulated N9 microglial cells. Cells were pretreated with different concentrations of TBIII and t-HL 1 h prior to the addition of LPS (100 ng/mL) and were further incubated for 24 h. NO production was determined by using the Griess reagent. IC50 values and curve fitting were determined using Graphpad Prism (GraphPad, Avenida, CA, USA).
Accumulation of nitrite, a metabolite of NO in the culture media, was measured by Griess assay as previously reported. Briefly, cells were stimulated with 100 ng/mL of LPS for 24 h in the presence of the test compounds (0–50 μM).

[3] = system: Akt; test: LPS-induced activation of Akt (Western blot); assay type: cell-based, mouse; details: pretreated 1 h, LPS 100 ng/mL
Protocol: (§1) Figure 6 Effect of TBIII and t-HL on LPS-induced activation of Akt (A,C) and NF-κB (B,D) in N9 cells. Cells were treated with different concentrations of TBIII and t-HL for 1 h prior to stimulation with LPS (100 ng/mL). Nuclear and cytoplasmic proteins were obtained and analyzed by western blot. PAR (10 μM) was used as a positive control. The data shown represent the mean ± S.E.M of three independent experiments. * p < 0.05, ** p < 0.01, *** p < 0.001 versus the LPS-treated group; ^# p < 0.05, ^## p < 0.01, ^### p < 0.001 versus the control group.
(§2) N9 cells were plated into 12-well plates (4 × 10^5 cells/well) and pretreated with different concentrations of TBIII and t-HL for 1 h, then stimulated by 100 ng/mL of LPS for 24 h. Nuclear and cytoplasmic proteins were obtained with nuclear and cytoplasmic protein extraction kit (Beyotime Biotechnology, Shanghai, China) according to the manufacturer′s protocol. Proteins were collected by SDS-PAGE Sample Loading Buffer (Yeasen, Shanghai, China) and heated at 99 °C for 10 min. Proteins in sample loading buffer were separated on 10% sodium dodecyl sulfate (SDS)-polyacrylamide gel electrophoresis (PAGE) and followed by transferring to nitrocellulose membranes (Whatman Protran, Dassel, Germany). […] The immunoreactive bands were quantified using the NIH Image J software (NIH, Bethesda, MD, USA).

[4] = system: N9 microglial cells
Protocol: (§6) The N9 microglial cell line was obtained from China Cell Line Bank. The cells were grown at 37 °C in IMDM supplemented with 10% heat-inactivated FBS under a humidified atmosphere of 5% CO2. In this experiment, cells were allowed to acclimate for 24 h before treatments.
(§7) Cell viability was evaluated by the MTT reduction assay [36]. Cells were seeded in 96-well plates at a density of 2 × 10^4 cells/well and allowed to grow for 24 h before treatments. Thereafter, 100 μL medium containing various concentrations (0–50 μM) of compounds were added and incubated for another 24 h. MTT was dissolved in DD water (5 mg/mL) and 10 μL were added to each well. After 4 h, the medium was removed and 100 μL DMSO were filled in each well. The optical density was measured at 490 nm on a Flexstation 3 (Molecular Devices, Silicon Valley, CA, USA).

[5] = system: TNF-α; test: LPS-induced TNF-α mRNA expression (real-time PCR); assay type: cell-based, mouse; details: pretreated 1 h, LPS 100 ng/mL 4 h, dose-dependent
Protocol: (§3) Figure 4 Effects of TBIII (A) and t-HL (B) on LPS-induced mRNA expression of pro-inflammatory cytokines in N9 microglial cells. Cells were treated with different concentrations of TBIII and t-HL for 1 h and then stimulated with LPS (100 ng/mL) for 4 h. TNF-α and IL-6 mRNA levels were determined by real-time PCR analysis. […] The data were obtained from three independent experiments and expressed as the means ± […] < 0.001 versus the LPS-treated group; ^### p < 0.001 versus the control group. Total RNA was extracted from cells using Trizol reagent (Invitrogen, Carlsbad, CA, USA). Reverse transcription of RNA was performed with the Reverse Transcription System […] kit (Promega, Madison, WI, USA) according to the manufacturer's protocol. The complementary DNA (cDNA) was subsequently subjected to Real-Time PCR to quantify the transcripts of TNF-α and IL-6 using SYBR® Green Real-time PCR Master Mix (TOYOBO, Osaka, Japan). […] The primers for the mouse housekeeping gene glyceraldehyde-3-phosphate dehydrogenase ([…] was performed according to the following conditions: 94 °C for 3 min, 40 cycles of denaturation at 94 °C for 30 s, annealing at 56 °C for 45 s, extension at 72 °C for 30 s, followed by a final extension at 72 °C for 10 min. The quantified fold changes in messenger RNA (mRNA) in each sample were normalized to GAPDH expression and calculated using the 2exp (-ΔΔCt) method.

[6] = system: IL-6; test: LPS-induced IL-6 mRNA expression (real-time PCR); assay type: cell-based, mouse; details: pretreated 1 h, LPS 100 ng/mL 4 h, dose-dependent
Protocol: as §3

[7] = system: TNF-α; test: LPS-induced TNF-α production (ELISA); assay type: cell-based, mouse; details: pretreated 1 h, LPS 100 ng/mL 24 h
Protocol: (§4) Figure 5 Effects of TBIII (A) and t-HL (B) on LPS-induced production of pro-inflammatory cytokines in N9 microglial cells. Cells were pre-treated with TBIII and t-HL for 1 h and then stimulated with LPS (100 ng/mL) for 24 h. The protein levels of TNF-α and IL-6 determined by ELISA according to manufacturer′s instructions. PAR (10 μM) was used as a positive control. The data were obtained from three independent experiments and expressed as the means ± S.E.M. * p < 0.05, ** p < 0.01, *** p < 0.001 versus the LPS-treated group; ^## p < 0.01, ^### p < 0.001 versus the control group.
(§5) N9 cells were plated into 24-well plates (2 × 10^5 cells/well). After cells became adherent, they were pretreated with different concentrations of TBIII and t-HL for 1 h before stimulation with 100 ng/mL of LPS. The supernatants of cultured medium were collected and the production of TNF-α and IL-6 was measured after incubation for 24 h using an ELISA kit according to manufacturer′s instructions.

[8] = system: iNOS; test: iNOS expression by Western blot in LPS-stimulated N9 cells; assay type: cell-based, mouse; details: pretreated 1 h, LPS 100 ng/mL 24 h, dose-dependent
Protocol: Figure 3 Effects of TBIII (A) and t-HL (B) on the expression of iNOS induced by LPS in N9 microglial cells. The iNOS protein levels were analyzed by Western blot. Cells were treated with different concentrations of TBIII and t-HL for 1 h and then stimulated with LPS (100 ng/mL) for 24 h. The iNOS signal was normalized to the β-actin signal. Parthenolide (PAR, 10 μM) was used as a positive control. The data were obtained from three independent experiments and expressed as the means ± S.E.M. * p < 0.05, ** p < 0.01, *** p < 0.001 versus the LPS-treated group; ^### p < 0.001 versus the control group.
as §2

[9] = system: IL-6; test: LPS-induced IL-6 production (ELISA); assay type: cell-based, mouse; details: pretreated 1 h, LPS 100 ng/mL 24 h
Protocol: as §4, §5

[10] = system: NF-κB; test: LPS-induced activation of NF-κB (Western blot, nuclear p65); assay type: cell-based, mouse; details: pretreated 1 h, LPS 100 ng/mL
Protocol: as §1, §2

[11] = in vitro; details: mouse, % Cell Viability
Protocol: as §6, §7

[12] = system: various kinds of tumor cells; set-up: method as in PMID 15971131, PMID 28548219, PMID 29393481, PMID 27897231; details: cited from earlier work
[13] = MTT assay for cell viability; details: mouse, N9 microglial cells, % Cell Viability, 24 h, MTT, mean ± S.E.M.; for viability at 24 h, 25 µM: 25 μM compound; for viability at 24 h, 50 µM: 50 μM compound
Protocol: as §6, §7

[14] = system: N9 microglial cells; test: MTT assay for cell viability
Protocol: as §6, §7

[15] = system: neuronal injury; set-up: method as in PMID 23287539; details: cited from earlier work
[16] = system: scopolamine-induced cognition deficits; set-up: method as in PMID 27444169; details: mice; cited from earlier work
[17] = 25 μM compound, LPS 100 ng/mL, 24 h
[18] = 50 μM compound, LPS 100 ng/mL, 24 h
[19] = Mus musculus, 25 μM compound, LPS 100 ng/mL, 24 h, read-out: % Inhibition of NO Production
[20] = Mus musculus, 50 μM compound, LPS 100 ng/mL, 24 h, read-out: % Inhibition of NO Production

| SMILES | Nitrite [2, 17] [µM] | Nitrite [2, 18] [µM] | % Inhibition of NO Production [2, 18] | phosphorylation of Akt / PI3K/Akt signaling activation [3] | TNF-α mRNA expression [5] | IL-6 mRNA expression [6] | TNF-α production (protein) [7] | iNOS protein expression [8] | IL-6 production (protein) [9] | NF-κB signaling / p65 subunit into nuclei [10] | viability at 24 h, 25 µM [11] [%] | inhibition at 25 µM [2, 19] [%] | inhibition at 50 µM [2, 20] [%] | viability at 24 h, 25 µM [13] [%] | viability at 24 h, 50 µM [13] [%] | also measured |
| --- | --- | --- | --- | --- | --- | --- | --- | --- | --- | --- | --- | --- | --- | --- | --- | --- |
| CC1=C(CCC(C)COC2OC(CO)C(O)C(O)C2O)OC2CC3C4CCC5CC(OC6OC(CO)C(O)C(O)C6OC6OC(CO)C(O)C(O)C6O)CCC5(C)C4CCC3(C)C12 (stereo not shown) [Compound 11, Timosaponin BIII] | 8.55 ± 0.25 | 4.24 ± 0.10 | 86% and 86.67 ± 0.37 % | attenuated | significantly suppressed | significantly suppressed | significantly suppressed | significantly attenuated | significantly suppressed | no effect | 120 ± 11.8 |  |  |  |  | antidepressive activity [1]: antidepressive activity; cytotoxicity against N9 microglial cells (in words) [4]: non-cytotoxic; % Cell Viability ([4]; mouse, 24 h, 50 µM): 74.93 ± 3.15 % |
| C[C@@H]1O[C@@H](O[C@H]2[C@H](OC(=O)[C@]34CCC(C)(C)C[C@H]3C3=CC[C@@H]5[C@@]6(C)C[C@H](O)[C@H](O[C@@H]7O[C@H](CO)[C@@H](O)[C@H](O)[C@H]7O)C(CO)(CO)[C@@H]6CC[C@@]5(C)[C@]3(C)C[C@H]4O)OC[C@H](O)[C@@H]2O)[C@H](O)[C@H](O)[C@H]1O[C@@H]1OC[C@@H](O)[C@H](O[C@@H]2OC[C@](O)(CO)[C@H]2O)[C@H]1O [Compound 14, Platycodin D] | 28.94 ± 0.40 | 4.29 ± 0.59 |  |  |  |  |  |  |  |  |  | 8.65 ± 2.24 | 86.5 ± 2.71 | 40.2 ± 9.18 | 17.9 ± 1.99 | cytotoxicity towards tumor cells [12]: significant cytotoxicity; cell viability reduced to ([14]; at 25 and 50 μM): ≤ 60% |
| CCC1C(OC(=O)CCC(C)COC2OC(CO)C(O)C(O)C2O)CC2C3CCC4CC(OC5OC(CO)C(O)C(O)C5OC5OC(CO)C(O)C(O)C5O)CCC4(C)C3CCC12C (stereo not shown) [Compound 19, Anemarnoside A] | 23.63 ± 1.13 | 9.83 ± 0.30 |  |  |  |  |  |  |  |  | 124 ± 3.13 |  |  |  |  | inhibition at 25 µM ([2]; Mus musculus, read-out: % Inhibition of NO Production, 25 μM compound, LPS 100 ng/mL, 24 h): 25.2 ± 8.72%; inhibition at 50 µM ([2]; Mus musculus, read-out: % Inhibition of NO Production, 50 μM compound, LPS 100 ng/mL, 24 h): 66.9 ± 2.82%; viability at 24 h, 50 µM [11]: 126 ± 3% |
| C=CC(C=Cc1ccc(O)cc1)c1ccc(O)cc1 (stereo not drawn) [Compound 23, trans-Hinokiresinol] | 14.93 ± 0.41 | 5.18 ± 0.06 | 83.73 ± 0.22 % | not affected | significantly suppressed | significantly suppressed | significantly suppressed | significantly attenuated | significantly suppressed | significantly prevented |  | > 50 | 83 | 108 ± 4.39 | 98.3 ± 11.6 | IC50 ([2]; Mus musculus, N9, pretreated 1 h, LPS 100 ng/mL, 24 h, Griess reagent, read-out: IC50, inhibition of NO production): 39.1 µM; effect on neuronal injury [15]: protective effect; cytotoxicity against N9 microglial cells (in words) ([14]; MTT): non-cytotoxic |
| C[C@@H](CC[C@@]1(O)O[C@H]2C[C@H]3[C@@H]4CC[C@@H]5C[C@@H](O[C@@H]6O[C@H](CO)[C@H](O)[C@H](O)[C@H]6O[C@@H]6O[C@H](CO)[C@@H](O)[C@H](O)[C@H]6O)CC[C@]5(C)[C@H]4CC[C@]3(C)[C@H]2[C@@H]1C)CO[C@@H]1O[C@H](CO)[C@@H](O)[C@H](O)[C@H]1O [Timosaponin BII] |  |  |  |  |  |  |  |  |  |  |  |  |  |  |  | effect on scopolamine-induced cognition deficits [16]: ameliorate scopolamine-induced cognition deficits |
